Publication PMC7044277 (Nature Communications, 2020)
“And” between values parts separate entries of the source, which are not always exact repeats. Equal values may be shown once.

Assays:
Type in all cases: cell-based
320 non-olfactory GPCRs [1] = target: T1, 320 non-olfactory GPCRs (Homo sapiens, UniProt Q8TDS5); conditions: receptor OXER1; replicate values, Fig_4g
T1 construct: expressed in transfected cells; host or cells: HTLA cells

320 non-olfactory GPCRs [2] = target: T2, 320 non-olfactory GPCRs (Homo sapiens, UniProt P30518)
T2 construct: expressed in transfected cells; host or cells: HTLA cells
T2 sequence (P30518 whole entry): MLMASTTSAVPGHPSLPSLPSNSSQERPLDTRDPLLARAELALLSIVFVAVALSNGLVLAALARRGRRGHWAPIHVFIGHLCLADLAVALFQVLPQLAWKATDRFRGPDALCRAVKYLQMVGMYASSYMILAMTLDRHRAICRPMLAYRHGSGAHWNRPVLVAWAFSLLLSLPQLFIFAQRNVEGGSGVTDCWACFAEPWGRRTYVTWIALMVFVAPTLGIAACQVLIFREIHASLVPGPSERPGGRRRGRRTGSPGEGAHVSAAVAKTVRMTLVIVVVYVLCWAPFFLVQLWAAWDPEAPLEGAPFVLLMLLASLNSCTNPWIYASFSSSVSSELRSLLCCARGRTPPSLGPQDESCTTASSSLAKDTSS

320 non-olfactory GPCRs [3] = target: T3, 320 non-olfactory GPCRs (Homo sapiens, UniProt Q5NUL3)
T3 construct: expressed in transfected cells; host or cells: HTLA cells
T3 sequence (Q5NUL3 whole entry): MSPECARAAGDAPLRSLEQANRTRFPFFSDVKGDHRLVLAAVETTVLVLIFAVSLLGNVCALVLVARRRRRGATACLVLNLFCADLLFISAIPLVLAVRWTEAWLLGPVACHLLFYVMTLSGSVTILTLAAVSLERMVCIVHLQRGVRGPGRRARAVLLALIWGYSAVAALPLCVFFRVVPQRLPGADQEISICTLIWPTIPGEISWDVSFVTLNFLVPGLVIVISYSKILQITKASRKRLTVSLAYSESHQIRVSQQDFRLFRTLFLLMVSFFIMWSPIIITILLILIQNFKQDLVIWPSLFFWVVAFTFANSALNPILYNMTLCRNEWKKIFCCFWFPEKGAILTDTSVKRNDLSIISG

320 non-olfactory GPCRs [4] = target: T4, 320 non-olfactory GPCRs (Homo sapiens, UniProt P30559); conditions: receptor OXTR; replicate values, Fig_4g
T4 construct: expressed in transfected cells; host or cells: HTLA cells
T4 sequence (P30559 whole entry): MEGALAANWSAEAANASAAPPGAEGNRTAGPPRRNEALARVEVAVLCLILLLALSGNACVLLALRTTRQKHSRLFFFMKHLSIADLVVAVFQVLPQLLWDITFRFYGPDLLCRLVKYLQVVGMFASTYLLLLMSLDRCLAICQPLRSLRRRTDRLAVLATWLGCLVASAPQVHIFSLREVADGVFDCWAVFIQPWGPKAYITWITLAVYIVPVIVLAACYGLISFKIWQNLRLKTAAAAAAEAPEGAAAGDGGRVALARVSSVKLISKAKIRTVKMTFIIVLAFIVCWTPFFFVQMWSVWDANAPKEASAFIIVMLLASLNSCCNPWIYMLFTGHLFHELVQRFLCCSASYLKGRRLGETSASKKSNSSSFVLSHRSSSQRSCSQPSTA
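For Fold of Basal in this document: compound tested at 1 µM final concentration.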
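For GPCRome agonism screen response in this document: fold over basal response of each receptor without drug.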

T1 sequence (Q8TDS5 whole entry): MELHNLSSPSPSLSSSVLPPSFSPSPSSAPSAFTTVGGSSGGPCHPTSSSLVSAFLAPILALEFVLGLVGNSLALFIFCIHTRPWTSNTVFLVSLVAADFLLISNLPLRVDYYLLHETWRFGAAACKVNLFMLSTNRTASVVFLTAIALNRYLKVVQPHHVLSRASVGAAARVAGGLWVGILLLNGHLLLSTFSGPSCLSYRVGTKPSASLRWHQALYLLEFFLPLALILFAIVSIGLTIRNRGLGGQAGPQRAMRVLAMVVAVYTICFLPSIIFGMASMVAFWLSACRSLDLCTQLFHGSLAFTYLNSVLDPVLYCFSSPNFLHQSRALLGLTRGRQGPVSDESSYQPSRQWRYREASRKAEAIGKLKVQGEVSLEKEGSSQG

## CCOc1cccc2cc(C(C)NCC3(O)CCCCC3)oc12 (stereo not shown) [O4LE6]
320 non-olfactory GPCRs [1]
  GPCRome agonism screen response: 0.5177 and 0.9727 and 1.432 and 1.135
320 non-olfactory GPCRs [2]
  Fold of Basal: 1.01 and 0.8337 and 0.9883 and 1.294
320 non-olfactory GPCRs [3]
  Fold of Basal: 1.4501 and 0.8868 and 0.9227 and 1.231
320 non-olfactory GPCRs [4]
  GPCRome agonism screen response: 1.578 and 1.894 and 1.457 and 1.467
